Assay results reported in patent US6723708B2, “Use of lithium (Li+) for the preparation of a composition for transfection of a polynucleotide into a cell and compositions useful in gene therapy” (Transgene S.A., priority 1999, dated 2004).

System: tibialis anterior muscles
Assay: Intramuscular transfection of plasmid pTG11033 with LiCl, luciferase activity in muscle extracts
Type: in vivo, C57BL/10 mice
Conditions: pTG11033 25 μg/muscle intramuscular with LiCl 0.1, 1, 10 mM; measured 7 days after injection; versus NaCl 0.9% control
Protocol: Plasmid DNA (pTG11033: CMV promoter, β-globin intron, luciferase cassette—WO 98/34910) was prepared according to Bischoff et al., Analytical Biochemistry 254 (1997), 69-81. Prior to intramuscular injection the tested molecules were mixed with the plasmid DNA preparation. 25 μg of plasmid DNA were injected per muscle into 5 to 10 week-old C57BL/10 mice. The 2 tibialis anterior (right and left) muscles were injected (each muscle was considered as a sample). Furthermore, for each condition, both the lowest and highest luciferase acitvity values were omitted, which means number of sample per condition=(2×number of mice per condition)−2.
One week after injection of the composition, the mice were killed and the tibialis anterior muscles were retrieved and frozen. Luciferase activity was quantified on whole muscle extracts using a conventional measurement kit (Luciferase Assay System, Promega). Briefly, muscles were ground separately and diluted in 200 μl of reporter lysis buffer (Promega). 10 μl-samples were placed in 96 well-plates and mixed with 100 μl of substrate. Luciferase activity was expressed as number of RLU emitted per minute, per mg of protein.
Protein was measured on 10 μl samples using a VCA Protein Assay kit (Pierce).
In this example, the stock solution of plasmid pTG11033 was prepared in TE buffer (Tris 10 mM—EDTA 1 mM) at a nucleic acid concentration of […]. […]

[Cl-].[Li+] [LiCI, lithium chloride]
increase of luciferase activity in the injected muscles: around 5 times
